These results are taken from US9598686B2, “Use of Galerina marginata genes and proteins for peptide production” (Board of Trustees of Michigan State University, priority 2007, dated 2017).

The conditions of data set [1]: parenteral: inhalation, intravenous or intramuscular injection; cited from earlier work.
For data set [2] the following is noted: oral; cited from earlier work.
The subject of data set [3] is POPB (prolyl oligopeptidase) purified from Conocybe albipes. Description: cleavage of synthetic model toxin propeptides by purified POP, reverse phase HPLC and MS. The data set is classed as biochemical. Conditions: products confirmed by MS/MS.
Protocol: The responsible enzyme was purified. Specifically, Conocybe mushrooms were freeze-dried, ground in buffer, and the extracts concentrated by ammonium sulfate precipitation. After desalting, the proteins were fractionated by anion exchange high-performance liquid chromatography (or high pressure liquid chromatography, HPLC).
Fractions containing peptides were assayed using Z-Gly-Pro-pNA and the model phallacidin substrate. Reaction products were separated by reverse phase HPLC (FIG. 20). In some experiments the HPLC eluant was analyzed by MS, while in other cases the peaks of UV absorption were collected and analyzed by MS in the inventors lab and the central LC/MS facility, in particular for long HPLC run times. […] PepSeq within the MassLynx program was used to determine peptide sequences. The peptides eluting from HPLC were monitored at 280 nm.
Confirmation of reaction product structures was accomplished by MS/MS.
The subject of data set [4] is human. Conditions: cited from earlier work.

*1 amine or outer side, *2 acyl side, *3 side chain or, on linkers, in order; H or OH if unused. Where a SMILES comes first, the peptide text is derived from it. Bridges are numbered along the chain shown (N, C = ends). [ ]: non-standard residue; d: D form. Trp(2-SH) = 2-mercapto-L-tryptophan, O=C([C@H](Cc1c(S[*:3])[nH]c2ccccc12)N[*:1])[*:2]; Trp(2-yl) = O=C([C@H](Cc1c([*:3])[nH]c2ccccc12)N[*:1])[*:2]; Leu(4R-OH,5-OH) = C[C@](O)(CO)C[C@H](N)C(=O)O; Leu(4,5-diOH) = 4,5-dihydroxy-L-leucine; cisHyp = O=C(O)[C@@H]1C[C@H](O)CN1

Regarding `C[C@@H]1NC(=O)[C@H](C[C@@](C)(O)CO)NC(=O)[C@@H]2Cc3c([nH]c4ccccc34)SC[C@H](NC(=O)[C@@H]([C@H](C)O)NC1=O)C(=O)N1C[C@@H](O)C[C@H]1C(=O)N[C@@H](C)C(=O)N2` [phalloidin, cyclic (L-alanyl-D-threonyl-L-cysteinyl-cis-4-hydroxy-L-prolyl-L-alanyl-2-mercapto-L-tryptophyl-4,5-dihydroxy-L-leucyl), cyclic (3,6)-sulfide] (cyclo(A[dT]C[cisHyp]A[Trp(2-yl)][Leu(4R-OH,5-OH)]); thioether 3-6), the “toxicity when administered parenterally” value in data set [1] is listed as “poisonous”. Besides, in data set [2], the “absorption by the mammalian digestive tract” value was “do not appear to be absorbed”.

With “ATRLPAWLVDCPCVGDD [synthetic phallacidin precursor]”, the “cleavage by purified POP at flanking Pro residues” value (“cleavage by purified POP” below) in data set [3] is “cut”.

Take “ATRLPIWGIGCNPCVGDD [synthetic amanitin precursor]”: the “cleavage by purified POP” value in data set [3] is recorded as “cut”.

Regarding “MSDINATRLPAWLATCPCAGDD [synthetic phalloidin peptide, synthesized model peptide mimicking the phalloidin proprotein]”, the “cleavage by purified POP” value in data set [3] is “cuts”.

In the case of “cyclic (L-alanyl-2-mercapto-L-tryptophyl-4,5-dihydroxy-L-leucyl-L-valyl-er-ythro-3-hydroxy-D-alpha-aspartyl-cysteinyl-cis-4-hydroxy-L-prolyl)cyclic (2-6)-sulfide (cyclo(A[Trp(2-SH)][Leu(4,5-diOH)]VDC[cisHyp]); thioether 2-6; not fully specified (residue 5)) [phallacidin]”, the “toxicity when administered parenterally” value in data set [1] was “poisonous”. Also, in data set [2], the “absorption by the mammalian digestive tract” value is “do not appear to be absorbed”.

For the compound “cyclic (L-asparaginyl-4-hydroxy-L-prolyl-(R)-4,5-dihydroxy-L-isoleucyl-6-hydroxy-2-mercapto-L-tryptophylglycyl-L-isoleucylglycyl-L-cysteinyl), cyclic (4-8)-sulfide, (R)—S-oxide [α-amanitin]”, in data set [4] (fatal for at least 50% of people weighing approximately 100-110 kgs, amount one mature mushroom can contain), the fatal dose was 10 to 12 mg. In addition, in data set [4] (human), the “human LD50” value was “approximately 0.1 mg/kg”.
